Experiment [1] addresses SCD1 (Rattus norvegicus (Rat), UniProt P07308). The experiment is described as follows: SCD1 enzymatic assay in rat liver microsomes (RLM). Format: biochemical. As to conditions: rat liver microsomes; for inhibition at 1 µM: read-out: % Inh.@ 1 μM. Here is the method:
Step 1: Preparation of Rat Liver Microsome (RLM):
Sprague Dawley rats from Charles River (200-225 g) underwent 2-cycle of fast-re-feeding (24-hour fast followed by 24-hour feeding with fat-free high carbohydrate diet, Reseach Diet, D00042802). The livers were removed and homogenized 1:4 (w/v) with pre-chilled, homogenizing buffer (10 mM Tris-HCl, 0.25 M sucrose, 1 mM EDTA, pH 7.4, supplemented with protease inhibitor cocktail). The homogenate was spun at 12,000×g for 15 min at 4° C. The supernatant was then re-centrifuged at 100,000×g for 60 min at 4° C. The pellet was re-suspended in 2 ml pre-chilled […] potassium phosphate buffer, pH 7.2, 10 mM EDTA at a concentration of 20 mg/ml. The resulting rat liver microsome (RLM) preparation was stored at −80° C.
Step 2: SCD1 Enzymatic Assay in RLM:
The SCD1 enzymatic assay was done in a volume of 50 μL using 10 μg of RLM (prepared as described above) in a 96-well polypropylene plate (enzyme reaction buffer contains 0.1 M K-Phosphate Buffer, 10 mM ATP, 6 mM MgCl2. 1 mM CoA, 1 mM β-NADH, 1.6 mM L-glutathione, 20 μM Stearoyl-CoA). Stearoyl-[9,10-^3H]-CoA (ARC-0390, 1 mCi/mL, 60 Ci/mmol,) was added at a final concentration of 2 μCi/mL. Test compound was then added to the reaction mixture at the selected concentration. After incubation at room temperature for 2 hours, 5 μL 1 N HCl was added to stop the reaction, followed by addition of 25 μL of 10% charcoal. The reaction mixture was then transferred to 96-well Multiscreen plate (Millipore, Cat#MSFCN6B50). […] The measured cpm values were fitted with Sigmoidal dose-response curve fit with Graphpad Prism.
On the technique in general: Microsomes from liver hold many membrane-bound enzymes, among them those of drug oxidation.

The target in experiment [2] is SCD1 (Homo sapiens (Human), UniProt O00767). The experiment is described as follows: SCD1 13C-palmitic acid assay in A431 cells. The note with it: read-out: A431 cells 13C-PA IC50. Format: cell-based. Here is the method: Human epithelial carcinoma A431 cells were seeded at 100,000 cells/well in complete growth medium (DMEM, Cellgro#10-013-CM, 4.5 g/L glucose, 10% FBS) in the presence of 0.05 mg/mL human insulin (Hannas Pharmaceutical Supply Co Inc, Humanlin 100 U/ml, 4 mg/ml) in 96-well tissue culture plate. 24 hr later, the cells were washed extensively with Assay Buffer (DMEM, Cellgro#10-013-CM, 4.5 g/L glucose, supplemented with 0.05 mg/mL Human Insulin and 0.1% Fatty Acid Free BSA). […] The cells were then returned to the tissue culture incubator (37° C. and 5% CO2) for 4 hrs. At the end of incubation, the cells were washed three times with 200 μL/well Hanks buffer (HBSS) and then stored at −20° C. until extraction.
SCD1 (Homo sapiens (Human), UniProt O00767), sequence (O00767 whole entry): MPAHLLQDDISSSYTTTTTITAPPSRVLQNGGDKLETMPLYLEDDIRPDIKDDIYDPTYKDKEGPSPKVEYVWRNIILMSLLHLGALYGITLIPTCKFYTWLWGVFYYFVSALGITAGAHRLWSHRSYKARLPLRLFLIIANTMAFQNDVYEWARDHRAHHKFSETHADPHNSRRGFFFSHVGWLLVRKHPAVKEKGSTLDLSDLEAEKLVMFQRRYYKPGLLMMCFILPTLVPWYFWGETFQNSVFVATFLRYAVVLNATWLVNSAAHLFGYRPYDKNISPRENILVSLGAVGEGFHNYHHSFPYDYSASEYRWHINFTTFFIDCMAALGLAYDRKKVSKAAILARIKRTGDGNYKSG
For fatty acid extraction, after thawing out the plates, 40 μL of 1N KOH (containing 5 μM of internal standard 7,7,8,8-D4 palmitate) was added to each well and cell plates were incubated at 37° C. for 30 minutes. […] Acetonitrile (100 μL) was then added to extract fatty acids, followed by centrifugation at 3000 rpm for 10 minutes. 75 μL of extract was then transferred to a new glass vial in a 96-well cluster plate. 5 μL was injected for LC/MS analysis for detection of ^13C-palmitic acid and ^13C-palmitoleic acid. Formation of product ^13C-palmitoleic acid was determined as an index of SCD1 activity.
LC/MS analysis was performed as following. An Agilent 1100 Liquid Chromatographic System (Palo Alto, Calif.) consisting of a binary pump, a degasser and an autosampler was used. Separation of free fatty acids was performed on a Zorbax SB-C8 column (2.1×50 mm, particle size=3.5 μm). An isocratic elution was carried out with 10 mM triethylamine acetate in water: acetonitrile (3:7) at a flow rate of 0.3 mL/min. The column temperature was set at 30° C. and the sample injection volume was 5 μL. The LC run cycle was 4 min. A Micromass triple-quadrupole Quattro Micro mass […] (Waters, Beverly, Mass.) was interfaced with the LC system through a Z-spray electrospray ion source and was operated in the negative ion mode. Nitrogen was used as nebulizing gas, desolvation gas and cone curtain gas and argon was chosen as collision gas. The triple quadrupole MS source parameters were set as follows: capillary voltage, 3200V; cone voltage, 25V; exctractor 2V; source temperature, 120° C.; desolvation temperature, 300° C.; cone gas flow, 50 L/h; and desolvation gas flow, 700 L/h. […] MassLynx software version 4.0 was used for system control and data processing. The signal of U-^13C-palmitoleic acid was normalized to an internal standard.

“And” between values parts separate entries of the source, which are not always exact repeats. Identical values can stand only once.

SCD1 (Rattus norvegicus (Rat), UniProt P07308), sequence (P07308 whole entry): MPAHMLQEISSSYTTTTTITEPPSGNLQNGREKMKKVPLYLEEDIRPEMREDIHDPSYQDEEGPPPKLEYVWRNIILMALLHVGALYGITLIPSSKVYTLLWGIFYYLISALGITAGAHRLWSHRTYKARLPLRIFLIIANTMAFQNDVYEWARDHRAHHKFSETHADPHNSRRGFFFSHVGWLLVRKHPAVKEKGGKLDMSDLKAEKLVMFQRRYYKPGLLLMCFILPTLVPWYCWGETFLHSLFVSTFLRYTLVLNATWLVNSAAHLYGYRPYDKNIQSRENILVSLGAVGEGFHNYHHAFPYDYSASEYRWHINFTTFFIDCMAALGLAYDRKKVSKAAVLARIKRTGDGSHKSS

In the case of `OCc1cn(-c2ccc(N3CCC(N4CCc5ccc(F)cc54)CC3)nn2)cn1` [Compound #15], the inhibition at 1 µM on SCD1 [1] (1 μM test compound) turned out to be 101%. For the same compound, the IC50 at SCD1 [1] came to 0.011 µM; at SCD1 [2], 0.003 µM.

Regarding `Cc1cnn(-c2ccc(N3CCC(N4CCc5ccc(F)cc54)CC3)nn2)c1` [Compound #16, 6-fluoro-1-(1-(6-(4-methyl-1H-pyrazol-1-yl)pyridazin-3-yl)piperidin-4-yl)indoline], the inhibition at 1 µM at SCD1 [1] (1 μM test compound) was found to be 100%. In addition, the IC50 came to 0.021 µM against SCD1 [1] and 0.023 µM at SCD1 [2].

Consider `CCn1cc(-c2ccc(N3CCC(N4CCc5ccc(F)cc54)CC3)nn2)cn1` [Compound #21, 1-(1-(6-(1-ethyl-1H-pyrazol-4-yl)pyridazin-3-yl)piperidin-4-yl)-6-fluoroindoline], for which the inhibition at 1 µM on SCD1 [1] (1 μM test compound) came to 94%. Moreover, the half-inhibitory concentration (IC50) on SCD1 [1] was 0.017 µM; at SCD1 [2], 0.04 µM and 0.019 µM.

For the compound `Cc1csc(-c2ccc(N3CCC(N4CCc5ccc(F)cc54)CC3)nn2)n1` [Compound #29, 2-(6-(4-(6-fluoroindolin-1-yl)piperidin-1-yl)pyridazin-3-yl)-4-methylthiazole], the inhibition at 1 µM on SCD1 [1] (1 μM test compound) amounted to 97%. The 50% inhibitory concentration (IC50) against SCD1 [1] is 0.007 µM; at SCD1 [2] it was 0.002 µM.

With `Cc1ccc(-c2ccc(N3CCC(N4CCc5ccc(F)cc54)CC3)nn2)cn1` [Compound #30, 6-fluoro-1-(1-(6-(6-methylpyridin-3-yl)pyridazin-3-yl)piperidin-4-yl)indoline], at SCD1 [1] (1 μM test compound), the “% Inh.@ 1 μM” value was 99% and the inhibition at 1 µM turned out to be 95%. In addition, the IC50 against SCD1 [1] is 0.006 µM and 0.019 µM. Also, the IC50 on SCD1 [2] was 0.002 µM and 0.003 µM.

For `Cc1cnc(-c2ccc(N3CCC(N4CCc5ccc(F)cc54)CC3)nn2)s1` [Compound #31, 2-(6-(4-(6-fluoroindolin-1-yl)piperidin-1-yl)pyridazin-3-yl)-5-methylthiazole], the inhibition at 1 µM on SCD1 [1] (1 μM test compound) came out at 97%. The IC50 is 0.031 µM on SCD1 [1]; 0.004 µM and 0.019 µM at SCD1 [2].

`Cc1ccc(-c2ccc(N3CCC(N4CCc5ccc(F)cc54)CC3)nn2)cc1` [Compound #36, 6-fluoro-1-(1-(6-(p-tolyl)pyridazin-3-yl)piperidin-4-yl)indoline]: the inhibition at 1 µM on SCD1 [1] (1 μM test compound) was found to be 92%. Moreover, the IC50 at SCD1 [1] was 0.079 µM; at SCD1 [2], 0.003 µM and 0.018 µM.

On to `COc1ccc(-c2ccc(N3CCC(N4CCc5ccc(F)cc54)CC3)nn2)cn1` [Compound #37, 6-fluoro-1-(1-(6-(6-methoxypyridin-3-yl)pyridazin-3-yl)piperidin-4-yl)indoline], for which the inhibition at 1 µM at SCD1 [1] (1 μM test compound) was 98%. In addition, the figures for the concentration for half-maximal inhibition (IC50) against SCD1 [1] and at SCD1 [2] were 0.012 µM and 0.004 µM, respectively.

Turning to `CNC(=O)c1ccc(-c2ccc(N3CCC(N4CCc5ccc(F)cc54)CC3)nn2)cn1` [Compound #42, 5-(6-(4-(6-fluoroindolin-1-yl)piperidin-1-yl)pyridazin-3-yl)-N-methylpicolinamide], the inhibition at 1 µM on SCD1 [1] (1 μM test compound) is 71%. The IC50 against SCD1 [1] was determined as 0.035 µM; on SCD1 [2], 0.006 µM.

Regarding `Fc1ccc(-c2ccc(N3CCC(N4CCc5ccc(F)cc54)CC3)nn2)cc1` [Compound #53, 6-fluoro-1-(1-(6-(4-fluorophenyl)pyridazin-3-yl)piperidin-4-yl)indoline], the inhibition at 1 µM at SCD1 [1] (1 μM test compound) is 59%. Half-maximal inhibition against SCD1 [1] (IC50) was put at 0.777 µM.

Turning to `Cn1cc(-c2ccc(N3CCC(n4ccc5ccc(F)cc54)CC3)nn2)cn1` [Compound #63, 6-fluoro-1-(1-(6-(1-methyl-1H-pyrazol-4-yl)pyridazin-3-yl)piperidin-4-yl)-1H-indole], at SCD1 [1] (1 μM test compound), the inhibition at 1 µM is 99%.

As to `Cn1cc(-c2ccc(N3CCC(N4CCc5c(F)cccc54)CC3)nn2)cn1` [Compound #66, 4-fluoro-1-(1-(6-(1-methyl-1H-pyrazol-4-yl)pyridazin-3-yl)piperidin-4-yl)indoline], the inhibition at 1 µM on SCD1 [1] (1 μM test compound) was determined as 57%. This compound also came in with an IC50 against SCD1 [1] of 0.678 µM.

With `CC(=O)NNC(=O)c1ccc(N2CCC(c3noc4ccc(F)cc34)CC2)nn1` [Compound I2, N′-acetyl-6-(4-(5-fluorobenzo[d]isoxazol-3-yl)piperidin-1-yl)pyridazine-3-carbohydrazide], the inhibition at 1 µM on SCD1 [1] (1 μM test compound) is 27%.

Regarding `Cc1ccc(-c2ccc(N3CCC(c4noc5ccc(F)cc45)CC3)nn2)cc1` [compound 32, 5-fluoro-3-(1-(6-(p-tolyl)pyridazin-3-yl)piperidin-4-yl)benzo[d]isoxazole], the inhibition at 1 µM on SCD1 [1] (1 μM test compound) came out at 45%. This compound also yielded an IC50 against SCD1 [1] of more than 1 µM.

Turning to `Cn1cc(-c2ccc(N3CCC(n4c(C(F)(F)F)nc5ccccc54)CC3)nn2)cn1` [compound 41, 1-(1-(6-(1-methyl-1H-pyrazol-4-yl)pyridazin-3-yl)piperidin-4-yl)-2-(trifiuoromethyl)-1H-benzo[d]imidazole], on SCD1 [1] (1 μM test compound), the inhibition at 1 µM was 38%. The compound further came in with an IC50 against SCD1 [1] of more than 1 µM.

Take `Cn1cc(-c2ccc(N3CCC(n4nnc5ccccc54)CC3)nn2)cn1` [compound 48, 1-(1-(6-(1-methyl-1H-pyrazol-4-yl)pyridazin-3-yl)piperidin-4-yl)-1H-benzo[d][1,2,3]triazoie]: the inhibition at 1 µM on SCD1 [1] (1 μM test compound) is 60%. For the same compound, the IC50 at SCD1 [1] amounted to 0.939 µM.

For the compound `CC(C)(C)OC(=O)c1ccc(-c2ccc(N3CCC(N4CCc5ccc(F)cc54)CC3)nn2)cc1` [compound 55, tert-butyl 4-(6-(4-(6-fluoroindolin-1-yl)piperidin-1-yl)pyridazin-3-yl)benzoate], the inhibition at 1 µM on SCD1 [1] (1 μM test compound) came out at 8%. This compound gave an IC50 at SCD1 [1] of more than 1 µM.

On to `NC(=O)c1ccc(-c2ccc(N3CCC(N4CCc5ccc(F)cc54)CC3)nn2)cc1` [compound 56, 4-(6-(4-(6-fluoroindolin-1-yl)piperidin-1-yl)pyridazin-3-yl)benzamide], for which, at SCD1 [1] (1 μM test compound), the inhibition at 1 µM was 28%. The same compound showed a half-maximal inhibitory concentration (IC50) against SCD1 [1] of more than 1 µM.

Consider `Cn1cc(-c2ccc(N3CCC(N4CCc5c(Cl)cccc54)CC3)nn2)cn1` [compound 67, 4-chloro-1-(1-(6-(1-methyl-1H-pyrazol-4-yl)pyridazin-3-yl)piperidin-4-yl)indoline], for which the inhibition at 1 µM at SCD1 [1] (1 μM test compound) came out at 32%. The half-inhibitory concentration (IC50) against SCD1 [1] was more than 1 µM.

On to `Cn1cc(-c2ccc(N3CCC(N4CCc5c(Cl)cc(Cl)cc54)CC3)nn2)cn1` [compound 68, 4,6-dichloro-1-(1-(6-(1-methyl-1H-pyrazol-4-yl)pyridazin-3-yl)piperidin-4-yl)indoline], for which the inhibition at 1 µM on SCD1 [1] (1 μM test compound) is 34%.

`Fc1ccc2onc(C3CCN(c4ccc(-n5cccn5)nn4)CC3)c2c1` [compound 87, 3-(1-(6-(1H-pyrazol-1-yl)pyridazin-3-yl)piperidin-4-yl)-5-fluorobenzo[d]isoxazole]: the inhibition at 1 µM at SCD1 [1] (1 μM test compound) was 45%.

As for `Cc1cn(-c2ccc(N3CCC(N4CCCc5ccccc54)CC3)nn2)cn1` [compound 90, 1-(1-(6-(4-methyl-1H-imidazol-1-yl)pyridazin-3-yl)piperidin-4-yl)-1,2,3,4-tetrahydroquinoline], the inhibition at 1 µM on SCD1 [1] (1 μM test compound) is 29%.

With `Cc1nccn1-c1ccc(N2CCC(c3noc4ccc(F)cc34)CC2)nn1` [compound 93, 5-fluoro-3-(1-(6-(2-methyl-1H-imidazol-1-yl)pyridazin-3-yl)piperidin-4-yl)benzo[d]isoxazole], the inhibition at 1 µM at SCD1 [1] (1 μM test compound) was found to be 41%.

A word on the IC50: it is the concentration at which inhibition is half-maximal.

These data come from patent US9102669B2, “Substituted piperidinyl-pyridazinyl derivatives useful as SCD 1 inhibitors” (Janssen Pharmaceutica NV, priority 2011, dated 2015).
